Results on six molecules are retold here after US20100008965A1, “BIOCOMPATIBLE MEDICAL PRODUCTS HAVING ENHANCED ANTI-THROMBOGENIC PROPERTIES” (priority 2008, published 2010).

Experiment [1] deals with HCAEC. Kind of experiment: HCAEC cell binding assay to immobilized fibronectin polypeptides (crystal violet). The following applies: immobilized, 8 h. The format is cell-based, human. The protocol:
(§1) Human coronary artery endothelial cell (HCAEC) and human umbilical vein endothelial cell (HUVEC) primary human cells were obtained (Cambrex Corporation, East Rutherford, N.J.) and maintained according to the manufacturer's instructions at 37° C. and 5% CO2. HCAEC were grown in microvascular endothelial cell medium (EBM-2 MV, Cambrex) supplemented with 5% fetal bovine serum, 0.1% human epidermal growth factor, 0.04% hydrocortisone, 0.1% vascular endothelial growth factor, 0.4% human fibroblast growth factor-B, 0.1% R^3-insulin-like growth factor-1, 0.1% ascorbic acid, and 0.1% gentamicin and amphotericin-B (GA-1000). HUVEC were grown in endothelial cell medium (EBM, Cambrex) supplemented with 2% fetal bovine serum, 0.4% bovine brain extract, 0.1% human epidermal growth factor, 0.1% hydrocortisone, and 0.1% gentamicin and amphotericin-B (GA-1000). HCAEC and HUVEC were subcultured at 90-95% confluence using 0.05% trypsin-EDTA (Invitrogen, Carlsbad, Calif.) and used for experiments between passages 3-7 (HUVEC) or 5-11 (HCAEC).
HCAEC or HUVEC cell binding assays to immobilized recombinant fibronectin polypeptides were performed in order to ascertain which polypeptide(s) maximally support(s) alpha-4 integrin-mediated cell adhesion. Connecting Segment-1 (SEQ ID NO:1), EILDV (SEQ ID NO:2), RGDS (SEQ ID NO:3) (positive control), RGES (SEQ ID NO:4) (negative control), and EILEVPST (SEQ ID NO:5) (negative control) and were immobilized by drying overnight at room temperature in Immobilizer™ Amino 96-well microplates (Nalge Nunc International, Rochester, N.Y.). RGES, EILDV, and EILEVPST were incubated at a molar equivalent concentration equal to 200 μg RGDS per well. CS-1 was incubated at 50 μg/well. On a molar basis per well, this equates to approximately twenty-fold less CS-1 relative to RGDS. […] Cells were manually counted, and their concentration adjusted to yield a total cell population of 5×10^4 cells/well. […] Spectrometric absorbance values were read at 562 nm at room temperature using a ThermoMax microplate reader (Molecular Devices Corporation, Sunnyvale, Calif.).

The subject of experiment [2] is HUVEC. Kind of experiment: alpha-4 integrin function blocking cell binding assay, HUVEC. It is filed as cell-based, human. The following applies: 0.5 μg antibody per 5×10^4 cells, 8 h; CS-1 p=0.1. The protocol:
(§2) To verify that HCAEC or HUVEC adhesion to immobilized CS-1 polypeptides is specifically mediated via alpha-4-containing integrin heterodimers, alpha-4 integrin function blocking cell binding assays were performed. RGDS, EILEVPST, and CS-1 polypeptides were immobilized in Immobilizer™ Amino 96-well microplates. Microplate wells were prepared as described above. Trypsinized HCAEC or HUVEC suspensions were manually counted, aliquoted into two groups, and incubated for one hour on ice with one of the following antibodies at a concentration of 0.5 μg antibody per 5×10^4 cells: (a) mouse monoclonal IgG1 anti-human alpha-4-integrin (CD49d, clone P1H4) (Chemicon), or (b) mouse monoclonal IgG1 anti-human isotype-matched control (R&D Systems). Next, 5×10^4 cells suspended in their respective basal medium were added to wells containing immobilized peptide polypeptides and incubated for eight hours at 37° C. and a 5% CO2 atmosphere. Adherent cells were analyzed via crystal violet staining as described previously.
To differentiate whether HCAEC and HUVEC adhere to CS-1 peptides via an alpha-4 integrin-specific interaction, HCAEC and HUVEC adhesion assays to CS-1, RGDS, and EILEVPST peptides were performed following one hour endothelial cell incubations with either an alpha-4 integrin function blocking antibody or an IgG isotype-matched control antibody. […]

The subject of experiment [3] is HUVEC. Kind of experiment: HUVEC cell binding assay to immobilized fibronectin polypeptides (crystal violet). The format is cell-based, human. The following applies: 8 h. The protocol: as §1, with “HCAEC and HUVEC were subcultured at 90-95% confluence using 0.05% trypsin-EDTA (Invitrogen, Carlsbad, Calif.) and used for experiments between passages 3-7 (HUVEC) or 5-11 (HCAEC).” left out
HCAEC or HUVEC cell binding assays to immobilized recombinant fibronectin polypeptides were performed in order to ascertain which polypeptide(s) maximally support(s) alpha-4 integrin-mediated cell adhesion. […] Cells were manually counted, and their concentration adjusted to yield a total cell population of 5×10^4 cells/well. […] Spectrometric absorbance values were read at 562 nm at room temperature using a ThermoMax microplate reader (Molecular Devices Corporation, Sunnyvale, Calif.).

For experiment [4], the system named is HCAEC. As to the kind of experiment: alpha-4 integrin function blocking cell binding assay, HCAEC. It is filed as cell-based, human. The following applies: 0.5 μg antibody per 5×10^4 cells, 8 h; CS-1 p<0.05. The protocol:
as §2
To differentiate whether HCAEC and HUVEC adhere to CS-1 peptides via an alpha-4 integrin-specific interaction, HCAEC and HUVEC adhesion assays to CS-1, RGDS, and EILEVPST peptides were performed following one hour endothelial cell incubations with either an alpha-4 integrin function blocking antibody or an IgG isotype-matched control antibody. The EILEVPST peptide served as the negative control cell adhesion peptide. The RGDS peptide served as an additional control. Endothelial cell adhesion to RGDS is primarily mediated by alpha-5-beta-1 integrins. Therefore, alpha-4 integrin function blocking should not have a significant effect on adhesion to RGDS. Thus, specificity of HCAEC and HUVEC binding to CS-1 via alpha-4 integrins could be tested.

Experiment [5] has as its target human alpha-4 integrin (CD49d), alpha-4-containing integrin heterodimers on endothelial cells (human) (UniProt P13612). As to the kind of experiment: flow cytometry, FITC-BU49 on fixed HCAEC, against isotype control.
For experiment [6] the target is unchanged. As to the kind of experiment: flow cytometry, FITC-BU49 on fixed human foreskin fibroblasts, against isotype control. Background: Flow cytometry measures light scatter and fluorescence of single cells or particles in a stream.
Experiment [7] shares this target. As to the kind of experiment: flow cytometry, FITC-BU49 on fixed HUVEC, against isotype control.
Experiment [8] relates to human platelets. Kind of experiment: DiOC6-labeled platelet adhesion imaging under shear flow. The format is cell-based. The following applies: 16.5 dyne/cm^2, one hour. The protocol:
To visualize shear stress-mediated platelet adhesion to the immobilized ECM proteins, non-radiolabeled non-activated or thrombin-activated human platelets were prepared as described above, but were first incubated for ten minutes at room temperature with a 10 μM DiOC6 (dihexaoxacarbocyanine iodide) (Sigma) solution prior to being subjected to flow for one hour at a shear stress τ=16.5 dyne/cm^2. Post-flow, all slides were rinsed twice with PBS and fixed with 4% (w/v) paraformaldehyde. Platelet adhesion was visualized on a Nikon Diaphot 200 inverted epifluorescence microscope (Nikon) at 488 nm using a 40× objective. Images were captured using an Olympus DP70 digital camera (Olympus America, Inc.) and analyzed using the Adobe® Photoshop® software package version 6.0 (Adobe Systems Incorporated, San Jose, Calif.).

Experiment [9] relates to human platelets. Kind of experiment: 51Cr-labeled platelet adhesion to immobilized ECM proteins under shear flow. It is filed as cell-based. The following applies: 16.5 dyne/cm^2, one hour; non-activated and thrombin-activated; versus CS-1 and glass control. The protocol: Characterization of human platelet adhesion to immobilized extracellular matrix proteins was performed by subjecting non-activated or thrombin-activated human platelets to a shear stress τ=16.5 dyne/cm^2 for one hour using a peristaltic pump-driven parallel plate fluid flow system. Washed human platelets were isolated as described above, resuspended in platelet washing buffer (PWB), and adjusted to a final concentration of approximately 0.5-1.0×10^9 platelets/ml. The platelet suspensions were incubated for thirty minutes at room temperature with 25 μCi/ml Na2^51CrO4 (GE Healthcare, Piscataway, N.J.). ^51Cr-labeled platelets were centrifuged at 2000×g for three minutes at room temperature and resuspended in 20 ml fresh frozen plasma previously thawed and warmed to 37° C. The ^51Cr-platelet/plasma solution was distributed equally (5 ml) into each of four reservoirs containing an additional 50 ml of 37° C. human plasma. For thrombin-activated platelets, 1 U thrombin (Sigma) per 3 ml platelet suspension was added immediately prior to aliquoting the ^51Cr-platelet/plasma solution into the flow loop reservoirs.
75×38×1 mm glass microscope slides were coated with ECM proteins as described above. Slides were incubated for one hour at room temperature with a 0.25% (w/v) sterile-filtered BSA solution. […]

For experiment [10], the target named is human alpha-4 integrin (CD49d), alpha-4-containing integrin heterodimers on endothelial cells (human, UniProt P13612 34-1032). Kind of experiment: cell-based or functional assay.
Chain of human alpha-4 integrin (CD49d), alpha-4-containing integrin heterodimers on endothelial cells (P13612 34-1032, one chain of several): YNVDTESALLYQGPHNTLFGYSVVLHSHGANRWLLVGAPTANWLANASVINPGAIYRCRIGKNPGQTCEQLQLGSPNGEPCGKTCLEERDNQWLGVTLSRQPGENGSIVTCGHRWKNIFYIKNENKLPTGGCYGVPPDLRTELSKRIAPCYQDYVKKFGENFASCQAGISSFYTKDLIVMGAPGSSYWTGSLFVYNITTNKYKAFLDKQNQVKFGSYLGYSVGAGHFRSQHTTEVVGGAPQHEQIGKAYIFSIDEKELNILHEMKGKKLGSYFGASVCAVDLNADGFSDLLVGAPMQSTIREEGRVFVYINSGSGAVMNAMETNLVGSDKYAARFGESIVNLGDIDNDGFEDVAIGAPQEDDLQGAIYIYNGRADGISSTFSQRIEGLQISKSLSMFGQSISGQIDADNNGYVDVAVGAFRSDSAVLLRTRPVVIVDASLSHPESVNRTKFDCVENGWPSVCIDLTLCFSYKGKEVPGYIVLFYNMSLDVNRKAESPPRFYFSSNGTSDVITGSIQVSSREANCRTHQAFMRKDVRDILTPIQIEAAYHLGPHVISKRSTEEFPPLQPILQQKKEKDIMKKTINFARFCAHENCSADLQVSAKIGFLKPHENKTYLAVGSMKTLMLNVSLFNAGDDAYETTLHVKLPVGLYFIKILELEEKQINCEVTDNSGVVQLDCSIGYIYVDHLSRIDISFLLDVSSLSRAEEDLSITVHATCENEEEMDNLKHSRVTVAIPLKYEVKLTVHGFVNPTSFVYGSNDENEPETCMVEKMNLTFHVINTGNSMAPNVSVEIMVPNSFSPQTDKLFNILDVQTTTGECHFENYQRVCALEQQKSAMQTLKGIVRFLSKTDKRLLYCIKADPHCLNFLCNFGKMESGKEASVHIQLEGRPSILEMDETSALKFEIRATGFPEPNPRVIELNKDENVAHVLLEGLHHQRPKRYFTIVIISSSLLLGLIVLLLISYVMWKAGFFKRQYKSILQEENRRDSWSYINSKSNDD

Chain of human alpha-4 integrin (CD49d), alpha-4-containing integrin heterodimers on endothelial cells (human) (P13612 34-1032, one chain of several): as above

“EILDV (listed as Homo sapiens) [fibronectin IIICS peptide]”: in the experiment on HCAEC [1], the “HCAEC adhesion compared with RGES control” value was “not statistically different than the RGES control”.
Consider “EILEVPST (listed as Homo sapiens) [alpha-4 integrin-mediated negative control peptide]”, for which the “difference in HUVEC adhesion between IgG isotype control and alpha-4 integrin blocking antibody treated cells” value in the experiment with HUVEC [2] is given as “not statistically significant”. Also, in the experiment on HUVEC [3], the “HUVEC adhesion compared with RGES control” value is “essentially equivalent”. For the same molecule, in the experiment on HCAEC [4], the “difference in HCAEC adhesion between IgG isotype control and alpha-4 integrin blocking antibody treated cells” value is listed as “not statistically significant”. Besides, the “HCAEC adhesion compared with RGES control” value with HCAEC [1] is reported as “essentially equivalent”.
Regarding “FITC-conjugated mouse monoclonal IgG1 anti-human alpha-4 integrin (CD49d, clone BU49) (Chemicon International) (antibody)”, the percent of cell population positive is 40% in experiment [5], 75% in experiment [6] and 10% in experiment [7].
As for “RGDS (listed as Homo sapiens) [integrin-mediated cell adhesion peptide, positive control]”, the “difference in HUVEC adhesion between IgG isotype control and alpha-4 integrin blocking antibody treated cells” value in the experiment on HUVEC [2] was “not statistically significant”. In the experiment on HCAEC [4], the “difference in HCAEC adhesion between IgG isotype control and alpha-4 integrin blocking antibody treated cells” value is “not statistically significant”.
Take “type I human collagen: human type I collagen (Sigma), extracellular matrix protein”: in the experiment with human platelets [8] (non-activated platelets), the “non-activated platelet adhesion and thrombus formation (DiOC6 images)” value is reported as “quite vigorous, with clear evidence of multiple organized thrombi”. Besides, the “thrombin-activated platelet adhesion and thrombus formation (DiOC6 images)” value in the experiment with human platelets [8] (platelets activated prior to flow) is recorded as “mimicked the non-activated counterparts”. For the same molecule, the “flowed platelet binding (51Cr), both states of activation” value with human platelets [9] is listed as “significantly increased binding”.
As for DELPQLVTLPHPNLHGPEILDVPST, in experiment [10], the “HCAEC adhesion to immobilized peptide, fold relative to control peptide RGES (crystal violet, A562)” value was 1.6 fold; the “HUVEC adhesion to immobilized peptide, fold relative to control peptide RGES (crystal violet, A562)” value is roughly 4 fold; the “percent more of the total HCAEC population adhered, relative to RGES” value was roughly 20%; the “percent more of the total HUVEC population adhered, relative to RGES” value was roughly 25%.
